# Laboratory results as given in PubChem BioAssay AID328 (DTP/NCI, 2004).
# “And” between values parts separate entries of the source, which are not always exact repeats. Equal values may be shown once. Toxic doses and inconclusive results are not listed.
# Tested on: BDF1 mice, P388 leukemia ip, median survival T/C
# Assay: NCI In Vivo Anticancer Drug Screen. Data for tumor model P388 Leukemia (intraperitoneal) in B6D2F1 (BDF1) mice
# Conditions: endpoint: median survival time, higher = longer survival
# How it was run: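 Transplantable tumour in mice; compound vs vehicle dosing; survival scored; ratio of treated to control reported.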
# [1] = dose: 100.0 mg/kg/injection, schedule: Q04DX003 (ip), vehicle: saline
# [2] = dose: 50.0 mg/kg/injection, schedule: Q01DX009 (ip), vehicle: saline with Tween-80
# [3] = dose: 100.0 mg/kg/injection, schedule: Q01DX009 (ip), vehicle: saline with Tween-80
# [4] = dose: 200.0 mg/kg/injection, schedule: Q01DX009 (ip), vehicle: saline with Tween-80
# [5] = dose: 37.5 mg/kg/injection, schedule: Q01DX009 (ip), vehicle: Klucel (hydroxypropylcellulose) (HPC)
# [6] = dose: 100.0 mg/kg/injection, schedule: Q01DX009 (ip), vehicle: Klucel (hydroxypropylcellulose) (HPC)
# [7] = dose: 200.0 mg/kg/injection, schedule: Q01DX009 (ip), vehicle: Klucel (hydroxypropylcellulose) (HPC)
structure (smiles),measurement,setting,value
COc1cccc2c1C(=O)c1c(O)c3c(c(O)c1C2=O)CC(O)(/C(C)=N/Nc1ccc(Cl)cc1)CC3OC1CC(N)C(O)C(C)O1 (stereo not given),T/C,"dose: 4.08 mg/kg/injection, schedule: Q04DX003 (ip), vehicle: water",158 % of control
same,T/C,"dose: 6.8 mg/kg/injection, schedule: Q04DX003 (ip), vehicle: water",157 % of control
Brc1ccc(C[N+]23CN4CN(CN(C4)C2)C3)cc1,T/C,"dose: 100.0 mg/kg/injection, schedule: Q01DX009 (ip), vehicle: saline",115 % of control
same,T/C,[1],118 % of control
same,T/C,"dose: 132.0 mg/kg/injection, schedule: Q01DX009 (ip), vehicle: saline with Tween-80",107 % of control and 108 % of control
same,T/C,"dose: 200.0 mg/kg/injection, schedule: Q01DX009 (ip), vehicle: saline",90 % of control
same,T/C,"dose: 200.0 mg/kg/injection, schedule: Q04DX003 (ip), vehicle: saline",122 % of control
COc1cccc2c1C(=O)c1c(O)c3c(c(O)c1C2=O)C[C@@](O)(/C(C)=N\O)C[C@@H]3OC1CC(N)C(O)C(C)O1 (stereo not given in full),T/C,"dose: 1.56 mg/kg/injection, schedule: Q01DX009 (ip), vehicle: water",112 % of control
same,T/C,"dose: 3.12 mg/kg/injection, schedule: Q01DX009 (ip), vehicle: water",105 % of control
same,T/C,"dose: 6.25 mg/kg/injection, schedule: Q01DX009 (ip), vehicle: water",161 % of control
same,T/C,"dose: 12.5 mg/kg/injection, schedule: Q01DX009 (ip), vehicle: water",210 % of control
same,T/C,"dose: 25.0 mg/kg/injection, schedule: Q01DX009 (ip), vehicle: water",103 % of control
CCOC(=O)C[n+]1c(C)sc2ccccc21,T/C,"dose: 50.0 mg/kg/injection, schedule: Q01DX005 (ip), vehicle: saline",99 % of control
same,T/C,"dose: 100.0 mg/kg/injection, schedule: Q01DX005 (ip), vehicle: saline",92 % of control
same,T/C,"dose: 200.0 mg/kg/injection, schedule: Q01DX005 (ip), vehicle: saline",101 % of control
CN(Cc1ccccc1)c1ccc(/C=C/c2ccnc3ccccc23)cc1,T/C,"dose: 12.5 mg/kg/injection, schedule: Q01DX001 (ip), vehicle: saline with Tween-80",93 % of control
same,T/C,"dose: 25.0 mg/kg/injection, schedule: Q01DX001 (ip), vehicle: saline with Tween-80",89 % of control
same,T/C,"dose: 50.0 mg/kg/injection, schedule: Q01DX001 (ip), vehicle: saline with Tween-80",88 % of control
same,T/C,"dose: 100.0 mg/kg/injection, schedule: Q01DX001 (ip), vehicle: saline with Tween-80",93 % of control
same,T/C,"dose: 400.0 mg/kg/injection, schedule: Q01DX001 (ip), vehicle: saline with Tween-80",94 % of control
COC(=O)C1=COC2OC3C(C(C)O)C(=O)OC34C=CC1C24 (stereo not given),T/C,"dose: 0.04 mg/kg/injection, schedule: Q01DX009 (ip), vehicle: saline + alcohol",90 % of control
same,T/C,"dose: 0.2 mg/kg/injection, schedule: Q01DX009 (ip), vehicle: saline + alcohol",95 % of control
same,T/C,"dose: 1.0 mg/kg/injection, schedule: Q01DX009 (ip), vehicle: saline + alcohol",118 % of control
same,T/C,"dose: 5.0 mg/kg/injection, schedule: Q01DX009 (ip), vehicle: saline + alcohol",118 % of control
Clc1nc(Cl)c(Nc2ccn[nH]2)nc1Cl,T/C,[2],100 % of control
same,T/C,[3],95 % of control and 100 % of control
same,T/C,[4],100 % of control
same,T/C,"dose: 400.0 mg/kg/injection, schedule: Q01DX009 (ip), vehicle: saline with Tween-80",95 % of control
COc1cc2c(c(OC)c1OC)CC1c3c(cc4c(c3-2)OCO4)CCN1C (stereo not given),T/C,[5],98 % of control
same,T/C,"dose: 75.0 mg/kg/injection, schedule: Q01DX009 (ip), vehicle: Klucel (hydroxypropylcellulose) (HPC)",102 % of control
same,T/C,"dose: 150.0 mg/kg/injection, schedule: Q01DX009 (ip), vehicle: Klucel (hydroxypropylcellulose) (HPC)",124 % of control
Cc1ccc(-c2cc(C)n(C)[n+]2C)cc1,T/C,"dose: 12.5 mg/kg/injection, schedule: Q01DX009 (ip), vehicle: saline with Tween-80",108 % of control
same,T/C,"dose: 25.0 mg/kg/injection, schedule: Q01DX009 (ip), vehicle: saline with Tween-80",110 % of control
CC(C)(C)NCC(O)c1cc(C(F)(F)F)nc2c(C(F)(F)F)cccc12 (stereo not given),T/C,[2],100 % of control
same,T/C,[3],100 % of control
same,T/C,[4],97 % of control
COc1ccc2c(Nc3ccc(NS(C)(=O)=O)cc3)c3ccccc3nc2c1,T/C,"dose: 0.66 mg/kg/injection, schedule: Q01DX009 (ip), vehicle: saline with Tween-80",169 % of control
same,T/C,"dose: 1.0 mg/kg/injection, schedule: Q01DX009 (ip), vehicle: saline with Tween-80",194 % of control
same,T/C,"dose: 1.5 mg/kg/injection, schedule: Q01DX009 (ip), vehicle: saline with Tween-80",201 % of control
same,T/C,"dose: 2.66 mg/kg/injection, schedule: Q04DX003 (ip), vehicle: saline with Tween-80",150 % of control
same,T/C,"dose: 4.0 mg/kg/injection, schedule: Q04DX003 (ip), vehicle: saline with Tween-80",163 % of control
same,T/C,"dose: 6.0 mg/kg/injection, schedule: Q04DX003 (ip), vehicle: saline with Tween-80",172 % of control
same,T/C,"dose: 9.0 mg/kg/injection, schedule: Q04DX003 (ip), vehicle: saline with Tween-80",168 % of control
same,T/C,"dose: 22.0 mg/kg/injection, schedule: Q04DX003 (ip), vehicle: saline with Tween-80",200 % of control
same,T/C,"dose: 25.0 mg/kg/injection, schedule: Q04DX003 (ip), vehicle: saline",254 % of control
same,T/C,"dose: 33.0 mg/kg/injection, schedule: Q04DX003 (ip), vehicle: saline with Tween-80",227 % of control
same,T/C,"dose: 50.0 mg/kg/injection, schedule: Q04DX003 (ip), vehicle: saline with Tween-80",231 % of control
same,T/C,"dose: 50.0 mg/kg/injection, schedule: Q04DX003 (ip), vehicle: saline",240 % of control
same,T/C,"dose: 75.0 mg/kg/injection, schedule: Q04DX003 (ip), vehicle: saline with Tween-80",281 % of control
same,T/C,[1],104 % of control
CC(=O)OC1CCC2(C)C3=C(CCC2C1(C)C)C1(C)CCC(c2ccc(C(C)C)oc2=O)C1(C)CC3 (stereo not given),T/C,"dose: 70.0 mg/kg/injection, schedule: Q01DX010 (ip), vehicle: carboxymethylcellulose (CMC)",90 % of control
same,T/C,"dose: 140.0 mg/kg/injection, schedule: Q01DX010 (ip), vehicle: carboxymethylcellulose (CMC)",90 % of control
same,T/C,"dose: 280.0 mg/kg/injection, schedule: Q01DX010 (ip), vehicle: carboxymethylcellulose (CMC)",90 % of control
C=C1C(=O)O[C@H]2[C@H]1[C@H](OC(=O)/C(C)=C\C)C[C@]1(CO1)[C@@H]1[C@H](OC(C)=O)C=C(C)[C@]21O,T/C,"dose: 10.0 mg/kg/injection, schedule: Q01DX010 (ip), vehicle: steriod suspending solution",100 % of control
same,T/C,"dose: 20.0 mg/kg/injection, schedule: Q01DX010 (ip), vehicle: steriod suspending solution",109 % of control
same,T/C,"dose: 40.0 mg/kg/injection, schedule: Q01DX010 (ip), vehicle: steriod suspending solution",118 % of control
OCc1cc(Cl)ccc1O,T/C,"dose: 50.0 mg/kg/injection, schedule: Q01DX009 (ip), vehicle: Klucel (hydroxypropylcellulose) (HPC)",101 % of control
same,T/C,[6],103 % of control
same,T/C,"dose: 100.0 mg/kg/injection, schedule: Q04DX003 (ip), vehicle: other",100 % of control
same,T/C,"dose: 132.0 mg/kg/injection, schedule: Q04DX003 (ip), vehicle: other",95 % of control
same,T/C,[7],110 % of control
same,T/C,"dose: 300.0 mg/kg/injection, schedule: Q04DX003 (ip), vehicle: other",108 % of control
same,T/C,"dose: 400.0 mg/kg/injection, schedule: Q04DX003 (ip), vehicle: other",109 % of control
CCCCCCCCC(=O)c1c(OC)oc(C=O)cc1=O,T/C,"dose: 2.34 mg/kg/injection, schedule: Q01DX009 (ip), vehicle: Klucel (hydroxypropylcellulose) (HPC)",96 % of control
same,T/C,"dose: 4.69 mg/kg/injection, schedule: Q01DX009 (ip), vehicle: Klucel (hydroxypropylcellulose) (HPC)",112 % of control and 118 % of control
same,T/C,"dose: 9.38 mg/kg/injection, schedule: Q01DX009 (ip), vehicle: Klucel (hydroxypropylcellulose) (HPC)",104 % of control and 108 % of control
same,T/C,"dose: 18.7 mg/kg/injection, schedule: Q01DX009 (ip), vehicle: Klucel (hydroxypropylcellulose) (HPC)",105 % of control
same,T/C,"dose: 18.75 mg/kg/injection, schedule: Q01DX009 (ip), vehicle: Klucel (hydroxypropylcellulose) (HPC)",96 % of control
same,T/C,[5],93 % of control and 114 % of control and 121 % of control
C[C@]12CCC(=O)C=C1CC[C@@H]1[C@@H]2C(=O)C[C@@]2(C)[C@H]1CC[C@]2(O)C(=O)CO,T/C,[6],108 % of control
same,T/C,"dose: 100.0 mg/kg/injection, schedule: Q04DX003 (ip), vehicle: Klucel (hydroxypropylcellulose) (HPC)",110 % of control
same,T/C,[7],108 % of control
same,T/C,"dose: 200.0 mg/kg/injection, schedule: Q04DX003 (ip), vehicle: Klucel (hydroxypropylcellulose) (HPC)",115 % of control
same,T/C,"dose: 400.0 mg/kg/injection, schedule: Q01DX009 (ip), vehicle: Klucel (hydroxypropylcellulose) (HPC)",87 % of control
same,T/C,"dose: 400.0 mg/kg/injection, schedule: Q04DX003 (ip), vehicle: Klucel (hydroxypropylcellulose) (HPC)",110 % of control
